Laboratory results taken from PMC4745983 (Frontiers in Cell and Developmental Biology, 2016).
In brackets after ≈: the same amount, converted by molar mass. Like-named read-outs stand apart in the source and are kept apart here. Marks after values point to notes of the source that are not given here. No end group written: not given here.

Key:
E. coli BL21 AI = details: indicator strain E. coli BL21 AI, cited from earlier work
Text: To increase the activity of nisin against Gram-negative bacteria, both the inhibition activity and trans-outer membrane activity are important. When the first three rings of nisin are intact, the lipid II binding activity is stable. Retaining the pore formation activity is crucial. By further variation of the linker between the nisin part and the tail or searching for more effic ...

E. coli CECT101 = assay type: cell-based, Escherichia coli; details: for Activity against E. coli CECT101 relative to nisin: comparison of MIC values / growth curves (Table 6, Figure 3)
Protocol: (§1) L. lactis strains were cultured in M17 broth supplemented with 0.5% (w/v) glucose (GM17) for genetic manipulation or in minimal expression medium (MEM) for protein expression at 30°C (Rink et al., [2005]). E. coli CECT101 was grown in Luria-Bertani broth aerated by shaking (200 rpm) at 37°C.
(§2) The indicator strains were first cultured until OD (600 nm) reached 0.5. When testing the MIC value, the culture was diluted 1000 times with the appropriate medium. All the tests were performed with a temperature controlled plate reader (Tecan infinite F200, Tecan Group AG) in a 96-well plate (Greiner Bio-one). The peptides were first diluted in gradient with medium and then mixed with diluted indicator strains. The final concentration of the peptides ranged from 0.00625 to 0.8 μM against L. lactis MG1363 and from 0.25 to 32 μM against E. coli CECT101 in 100 μl volume. The plate was incubated at 30°C or 37°C for 18 h depending on the indicator strain being L. lactis or E. coli, respectively. OD (600 nm) was checked every 30 min. For E. coli, 2 min of shaking was performed before every check. When testing the activity of nisin against E. coli in the presence of EDTA, an EDTA solution was prepared and added to a final concentration of 50, 110, or 250 μM. The minimal concentration of peptide causing no observed growth of indicator strains was considered as the MIC value.

L. lactis MG1363 = assay type: cell-based, Lactococcus lactis; details: for MIC value, L. lactis MG1363: MG1363, 18 h
Protocol: as §1, §2

[1] = supernatant of L. lactis NZ9000 expression culture in MEM medium; details: Lactococcus lactis, 30°C, up to 3 h induction
[2] = supernatant of L. lactis NZ9000 expression culture in MEM medium, mixed with supernatant containing NisP; details: Lactococcus lactis, 30°C, up to 3 h induction; 1 h with NisP
E. coli ATCC 25922 = details: indicator strain E. coli ATCC 25922, [2013], cited from earlier work
Text: Table 1 List of selected peptides with anti-Gram-negative bacteria activity. | column: MIC(μM)

GNNRPVYIPQPRPPHPRL [Apidaecin 1b]
MIC (E. coli BL21 AI; ref Berthold et al., [2013]): 0.5^b μM
MIC (E. coli BL21 AI; ref Berthold et al., [2013], listed as apidaecin 1b): 0.5 µM

Ring ABC + NGKPRPYSPRPTSHPRPIRV (bicyclic or more) [GNT8, nisin Ring ABC + drosocin tail]
MIC value, E. coli CECT101 (E. coli CECT101; Luria-Bertani broth, 96-well plate, 100 μl, 37°C, 18 h, OD600 every 30 min, peptide 0.25-32 μM, lowest concentration with no observed growth, repeated at least two times): >16 µM
Activity against E. coli CECT101 relative to nisin (E. coli CECT101): lower net activity than nisin

C=C1NC(=O)[C@H]([C@@H](C)CC)NC(=O)[C@H](NC(=O)/C(=C/C)NC(=O)[C@@H](N)[C@@H](C)CC)CSC[C@@H](C(=O)N[C@H]2C(=O)N3CCC[C@H]3C(=O)NCC(=O)N[C@H](C(=O)N[C@@H](CCCCN)C(=O)N[C@H]3C(=O)NCC(=O)N[C@@H](C)C(=O)N[C@@H](CC(C)C)C(=O)N[C@@H](CCSC)C(=O)NCC(=O)N[C@H](C(=O)N[C@@H](CC(N)=O)C(=O)N[C@@H](CCSC)C(=O)N[C@@H](CCCCN)C(=O)N4CCC[C@H]4C(=O)N[C@@H](CCCNC(=N)N)C(=O)N4CCC[C@H]4C(=O)N[C@@H](CCCNC(=N)N)C(=O)N4CCC[C@H]4C(=O)N4CCC[C@H]4C(=O)N[C@@H](CCCNC(=N)N)C(=O)N[C@@H](CCCNC(=N)N)C(=O)N[C@H](C(=O)N[C@@H](Cc4ccc(O)cc4)C(=O)N[C@@H](CC(N)=O)C(=O)N[C@@H](CCCNC(=N)N)C(=O)O)[C@@H](C)CC)CS[C@H]3C)CS[C@H]2C)NC(=O)[C@H](CC(C)C)NC1=O [GNT7]
MIC value, E. coli CECT101 (E. coli CECT101; CECT101, 18 h): >16 µM
Activity against E. coli CECT101 relative to nisin (E. coli CECT101): lower net activity than nisin
MIC value, L. lactis MG1363 (L. lactis MG1363): 0.2 µM (≈ 0.74 µg/mL)
Activity against L. lactis relative to GNT16 (L. lactis MG1363; from MIC values): equal activity as GNT16

Nisin + GKHVGKALKGLKGLLK
cleaved bond [1]: Val32-Dha33

Ring ABC + NMKPPYLPRPRPPRRIYNR
cleaved bond [2]: Y-N and I-Y

KKLFKKILKYL-NH2 [R-BP100]
MIC (E. coli ATCC 25922; ref Torcato et al.): 0.9 ± 0.4^f μM

Ring ABC + NMKPRPRPPRRIYNR
cleaved bond [2]: N-R and Y-N and I-Y and R-I

C=C1NC(=O)[C@H]([C@@H](C)CC)NC(=O)[C@H](NC(=O)/C(=C/C)NC(=O)[C@@H](N)[C@@H](C)CC)CSC[C@@H](C(=O)N[C@H]2C(=O)N3CCC[C@H]3C(=O)NCC(=O)N[C@H](C(=O)N[C@@H](CCCCN)C(=O)N[C@H]3C(=O)NCC(=O)N[C@@H](C)C(=O)N[C@@H](CC(C)C)C(=O)N[C@@H](CCSC)C(=O)NCC(=O)N[C@H](C(=O)N[C@@H](CC(N)=O)C(=O)N[C@@H](CCSC)C(=O)N[C@@H](CCCCN)C(=O)N[C@H]4C(=O)N[C@@H](C)C(=O)N[C@H]5C(=O)N[C@@H](CS[C@H]4C)C(=O)N[C@@H](Cc4c[nH]cn4)C(=O)N[C@H](C(=O)N[C@@H](CO)C(=O)NCC(=O)N4CCC[C@H]4C(=O)N[C@@H](CCCNC(=N)N)C(=O)N4CCC[C@H]4C(=O)N4CCC[C@H]4C(=O)N[C@@H](Cc4c[nH]cn4)C(=O)N4CCC[C@H]4C(=O)N[C@@H](CCCNC(=N)N)C(=O)N[C@@H](CC(C)C)C(=O)O)CS[C@H]5C)CS[C@H]3C)CS[C@H]2C)NC(=O)[C@H](CC(C)C)NC1=O [GNT16SG]
Activity against E. coli CECT101 relative to nisin (E. coli CECT101): lower net activity than nisin
Activity against E. coli relative to GNT16 (E. coli CECT101; from MIC values): more than four times lower activity
Activity against L. lactis relative to GNT16-3rings (times higher) (L. lactis MG1363; from MIC values): 2.5 times

C=C1NC(=O)[C@H]([C@@H](C)CC)NC(=O)[C@H](NC(=O)/C(=C/C)NC(=O)[C@@H](N)[C@@H](C)CC)CSC[C@@H](C(=O)N[C@H]2C(=O)N3CCC[C@H]3C(=O)NCC(=O)N[C@H](C(=O)N[C@@H](CCCCN)C(=O)N[C@H]3C(=O)NCC(=O)N[C@@H](C)C(=O)N[C@@H](CC(C)C)C(=O)N[C@@H](CCSC)C(=O)NCC(=O)N[C@H](C(=O)N[C@@H](CC(N)=O)C(=O)N[C@@H](CCSC)C(=O)N[C@@H](CCCCN)C(=O)N4CCC[C@H]4C(=O)N4CCC[C@H]4C(=O)N[C@@H](Cc4ccc(O)cc4)C(=O)N[C@@H](CC(C)C)C(=O)N4CCC[C@H]4C(=O)N[C@@H](CCCNC(=N)N)C(=O)N4CCC[C@H]4C(=O)N[C@@H](CCCNC(=N)N)C(=O)N4CCC[C@H]4C(=O)N4CCC[C@H]4C(=O)N[C@@H](CCCNC(=N)N)C(=O)N[C@@H](CCCNC(=N)N)C(=O)N[C@H](C(=O)N[C@@H](Cc4ccc(O)cc4)C(=O)N[C@@H](CC(N)=O)C(=O)N[C@@H](CCCNC(=N)N)C(=O)O)[C@@H](C)CC)CS[C@H]3C)CS[C@H]2C)NC(=O)[C@H](CC(C)C)NC1=O [GNT6]
MIC value, E. coli CECT101 (E. coli CECT101; CECT101, 18 h): >16 µM
Activity against E. coli CECT101 relative to nisin (E. coli CECT101): lower net activity than nisin

Gu-ONNRPVYIPRPRPPHPRL-NH2 [Api 88, derivative of apidaecin 1b with increased positive charges and an amidated C-terminus]
MIC (E. coli BL21 AI; ref Czihal et al., [2012]): 0.2^b μM

Ring ABC + NGKPRPYSPRPTSHPRPIRV
cleaved bond [2]: P-I

C=C1NC(=O)[C@H]([C@@H](C)CC)NC(=O)[C@H](NC(=O)/C(=C/C)NC(=O)[C@@H](N)[C@@H](C)CC)CSC[C@@H](C(=O)N[C@H]2C(=O)N3CCC[C@H]3C(=O)NCC(=O)N[C@H](C(=O)N[C@@H](CCCCN)C(=O)N[C@H]3C(=O)NCC(=O)N[C@@H](C)C(=O)N[C@@H](CC(C)C)C(=O)N[C@@H](CCSC)C(=O)NCC(=O)N[C@H](C(=O)N[C@@H](CC(N)=O)C(=O)N[C@@H](CCSC)C(=O)N[C@@H](CCCCN)C(=O)N4CCC[C@H]4C(=O)N[C@@H](CCCNC(=N)N)C(=O)N4CCC[C@H]4C(=O)N4CCC[C@H]4C(=O)N[C@@H](Cc4c[nH]cn4)C(=O)N4CCC[C@H]4C(=O)N[C@@H](CCCNC(=N)N)C(=O)N[C@@H](CC(C)C)C(=O)O)CS[C@H]3C)CS[C@H]2C)NC(=O)[C@H](CC(C)C)NC1=O [GNT16-3rings]
MIC value, E. coli CECT101 (E. coli CECT101; CECT101, 18 h): >32 µM
Activity against E. coli CECT101 relative to nisin (E. coli CECT101): lower net activity than nisin
MIC value, L. lactis MG1363 (L. lactis MG1363): 1 µM (≈ 3.09 µg/mL)

C=C1NC(=O)[C@H]([C@@H](C)CC)NC(=O)[C@H](NC(=O)/C(=C/C)NC(=O)[C@@H](N)[C@@H](C)CC)CSC[C@@H](C(=O)N[C@H]2C(=O)N3CCC[C@H]3C(=O)NCC(=O)N[C@H](C(=O)N[C@@H](CCCCN)C(=O)N[C@H]3C(=O)NCC(=O)N[C@@H](C)C(=O)N[C@@H](CC(C)C)C(=O)N[C@@H](CCSC)C(=O)NCC(=O)N[C@H](C(=O)N[C@@H](CC(N)=O)C(=O)N[C@@H](CCSC)C(=O)N[C@@H](CCCCN)C(=O)N[C@H](C(=O)N[C@@H](Cc4ccc(O)cc4)C(=O)N[C@H](C(=O)N4CCC[C@H]4C(=O)N[C@@H](CCCNC(=N)N)C(=O)N4CCC[C@H]4C(=O)N[C@@H](CCCNC(=N)N)C(=O)N4CCC[C@H]4C(=O)N4CCC[C@H]4C(=O)N[C@@H](Cc4c[nH]cn4)C(=O)N4CCC[C@H]4C(=O)N[C@@H](CCCNC(=N)N)C(=O)O)[C@@H](C)CC)C(C)C)CS[C@H]3C)CS[C@H]2C)NC(=O)[C@H](CC(C)C)NC1=O [GNT1]
MIC value, E. coli CECT101 (E. coli CECT101; CECT101, 18 h): >16 µM
Activity against E. coli CECT101 relative to nisin (E. coli CECT101): lower net activity than nisin
MIC value, L. lactis MG1363 (L. lactis MG1363): 1 µM (≈ 3.61 µg/mL)

GIGKHVGKALKGLKGLLKGLGEC-NH2 [ADP2]
MIC (E. coli ATCC 25922; ref Iliæ et al.): 1^f μM

VDKPPYLPRPRPPRRIYNR-NH2 [Oncocin]
MIC (E. coli BL21 AI; ref Knappe et al., [2010]): 1.7^b μM
